Experimental data from article PMC11790914, “Chemogenomics for steroid hormone receptors (NR3)” (Communications Chemistry, 2025).
Values joined by “and” are separate entries in the source; they are usually repeats but may differ in a detail not shown here. Equal entries are not always repeated.

Assays:
AURKA = target: T1, AURKA (Homo sapiens, UniProt O14965); assay: Liability panel screening by DSF: AURKA; format: binding; conditions: DSF, 20 µM, n=2; read-out: Mean ΔTM AURKA
T1 construct: made in house
T1 sequence (O14965 1-403): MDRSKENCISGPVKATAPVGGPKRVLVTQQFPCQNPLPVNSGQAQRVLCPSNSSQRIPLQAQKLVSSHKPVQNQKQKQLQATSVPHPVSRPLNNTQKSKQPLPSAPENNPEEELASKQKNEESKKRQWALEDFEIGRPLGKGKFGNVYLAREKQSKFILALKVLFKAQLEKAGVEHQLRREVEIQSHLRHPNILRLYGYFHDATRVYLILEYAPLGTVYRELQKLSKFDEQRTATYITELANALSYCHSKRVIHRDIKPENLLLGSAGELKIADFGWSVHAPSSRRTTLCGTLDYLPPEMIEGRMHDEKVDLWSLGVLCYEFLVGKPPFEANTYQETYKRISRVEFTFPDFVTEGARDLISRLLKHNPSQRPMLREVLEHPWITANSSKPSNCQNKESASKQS
Method in brief: (§1)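 Thermal shift: in-house recombinant protein at 2 µM in 10 mM HEPES pH 7.5 with 500 mM NaCl, SYPRO Orange 1:1000, heated at 3 °C/min to 85 °C in technical duplicates. Tm is the Boltzmann inflection point, reported as ∆Tm in K.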

[1] = tested on: ATF6 activity in Hela ATF6 reporter cells; assay: Endoplasmic reticulum stress assay (ATF6 Renilla luciferase reporter, tunicamycin); format: cell-based
Method in brief: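 ER stress was induced by 100 ng/mL tunicamycin added 4 h after compound (0.1% DMSO) to HeLa ATF6 reporter cells. After 18 h more, Renilla luciferase signal was read and expressed relative to DMSO control, n=5 biological replicates.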

CDK2 = target: T2, CDK2 (Homo sapiens, UniProt P24941); assay: Liability panel screening by DSF: CDK2; format: binding; conditions: DSF, 20 µM, n=2; read-out: Mean ΔTM CDK2
T2 construct: made in house
Method in brief: as §1

BRD4 = target: T3, BRD4 (Homo sapiens, UniProt O60885); assay: Liability panel screening by DSF: BRD4; format: binding; conditions: DSF, 20 µM, n=2; read-out: Mean ΔTM BRD4
T3 construct: This panel comprised ten highly ligandable kinases and bromodomains; made in house
Method in brief: as §1

ABL1 = target: T4, ABL1 (Homo sapiens, UniProt P00519); assay: Liability panel screening by DSF: ABL1; format: binding; conditions: DSF, 20 µM, n=2; read-out: Mean ΔTM ABL1
T4 construct: made in house
T4 sequence (P00519 whole entry, species assumed): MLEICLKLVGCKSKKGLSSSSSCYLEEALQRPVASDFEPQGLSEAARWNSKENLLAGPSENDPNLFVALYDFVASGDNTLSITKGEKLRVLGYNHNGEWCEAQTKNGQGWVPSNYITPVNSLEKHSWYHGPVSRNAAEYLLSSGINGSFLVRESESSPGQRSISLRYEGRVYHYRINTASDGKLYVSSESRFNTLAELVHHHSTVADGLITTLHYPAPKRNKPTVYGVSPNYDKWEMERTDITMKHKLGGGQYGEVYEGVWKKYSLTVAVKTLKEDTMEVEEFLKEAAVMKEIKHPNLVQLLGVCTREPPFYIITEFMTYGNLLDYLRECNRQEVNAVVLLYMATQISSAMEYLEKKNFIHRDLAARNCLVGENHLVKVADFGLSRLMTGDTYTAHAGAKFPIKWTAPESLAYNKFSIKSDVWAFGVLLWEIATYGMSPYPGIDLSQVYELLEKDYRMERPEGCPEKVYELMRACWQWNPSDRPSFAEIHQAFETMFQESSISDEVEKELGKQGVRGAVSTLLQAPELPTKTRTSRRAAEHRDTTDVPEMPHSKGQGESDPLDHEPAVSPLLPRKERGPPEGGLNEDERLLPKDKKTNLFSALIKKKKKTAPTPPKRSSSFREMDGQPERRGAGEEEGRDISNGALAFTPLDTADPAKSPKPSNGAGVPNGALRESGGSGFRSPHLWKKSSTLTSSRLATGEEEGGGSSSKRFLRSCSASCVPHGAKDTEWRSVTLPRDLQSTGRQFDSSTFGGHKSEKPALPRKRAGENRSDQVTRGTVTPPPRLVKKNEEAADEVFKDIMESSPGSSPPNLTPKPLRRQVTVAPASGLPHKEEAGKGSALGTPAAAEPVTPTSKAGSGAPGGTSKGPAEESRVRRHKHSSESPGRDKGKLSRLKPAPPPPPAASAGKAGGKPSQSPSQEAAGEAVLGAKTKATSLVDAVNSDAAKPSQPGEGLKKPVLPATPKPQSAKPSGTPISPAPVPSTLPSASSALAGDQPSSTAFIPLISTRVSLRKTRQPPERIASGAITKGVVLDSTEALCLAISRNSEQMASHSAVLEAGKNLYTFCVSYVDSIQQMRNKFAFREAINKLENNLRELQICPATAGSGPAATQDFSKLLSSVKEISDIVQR
Method in brief: as §1

CSNK1D = target: T5, CSNK1D (Homo sapiens, UniProt P48730); assay: Liability panel screening by DSF: CSNK1D; format: binding; conditions: DSF, 20 µM, n=2; read-out: Mean ΔTM CSNK1D
T5 construct: made in house
T5 sequence (P48730 whole entry, species assumed): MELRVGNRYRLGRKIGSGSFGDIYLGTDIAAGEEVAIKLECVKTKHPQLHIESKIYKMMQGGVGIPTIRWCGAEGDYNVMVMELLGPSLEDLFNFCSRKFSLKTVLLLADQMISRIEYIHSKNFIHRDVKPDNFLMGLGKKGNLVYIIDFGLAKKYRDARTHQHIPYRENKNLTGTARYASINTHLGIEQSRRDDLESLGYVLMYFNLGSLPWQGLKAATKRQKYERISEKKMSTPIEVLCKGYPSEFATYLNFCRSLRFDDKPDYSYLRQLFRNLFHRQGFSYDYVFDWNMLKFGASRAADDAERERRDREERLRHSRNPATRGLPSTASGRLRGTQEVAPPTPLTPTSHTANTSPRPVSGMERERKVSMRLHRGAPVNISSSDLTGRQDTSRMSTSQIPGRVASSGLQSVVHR
Method in brief: as §1

FGFR3 = target: T6, FGFR3 (Homo sapiens, UniProt P22607); assay: Liability panel screening by DSF: FGFR3; format: binding; conditions: DSF, 20 µM, n=2; read-out: Mean ΔTM FGFR3
T6 construct: made in house
T6 sequence (P22607 23-806, species assumed): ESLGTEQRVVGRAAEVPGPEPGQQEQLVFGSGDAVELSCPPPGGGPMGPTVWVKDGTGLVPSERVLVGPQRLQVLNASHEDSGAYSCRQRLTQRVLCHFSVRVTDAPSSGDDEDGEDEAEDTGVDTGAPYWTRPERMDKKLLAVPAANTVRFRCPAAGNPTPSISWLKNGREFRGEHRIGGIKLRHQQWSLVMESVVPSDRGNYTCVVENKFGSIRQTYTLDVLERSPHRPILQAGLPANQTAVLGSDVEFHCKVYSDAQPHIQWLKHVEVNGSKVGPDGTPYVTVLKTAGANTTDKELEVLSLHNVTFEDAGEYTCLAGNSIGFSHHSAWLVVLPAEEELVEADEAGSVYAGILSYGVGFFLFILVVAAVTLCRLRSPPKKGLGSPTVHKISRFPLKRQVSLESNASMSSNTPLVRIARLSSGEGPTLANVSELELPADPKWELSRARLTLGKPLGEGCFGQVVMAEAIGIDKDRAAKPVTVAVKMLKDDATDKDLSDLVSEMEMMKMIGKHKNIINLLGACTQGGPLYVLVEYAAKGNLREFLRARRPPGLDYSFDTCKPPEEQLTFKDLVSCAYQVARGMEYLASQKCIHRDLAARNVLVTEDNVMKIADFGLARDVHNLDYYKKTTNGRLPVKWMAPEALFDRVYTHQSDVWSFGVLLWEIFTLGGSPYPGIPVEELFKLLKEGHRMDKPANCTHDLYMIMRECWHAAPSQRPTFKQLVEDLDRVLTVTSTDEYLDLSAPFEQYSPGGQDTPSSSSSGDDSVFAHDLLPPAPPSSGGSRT
Method in brief: as §1

HEK293T cells [2] = assay: Cytotoxicity: apoptosis induction (caspase-3/7 DEVD fluorogenic DNA dye); conditions: 1 µM; HEK293T, 24 h; apoptotic cell count normalized to 0.1% DMSO; single replicates
HEK293T cells [3] = assay: Cytotoxicity: metabolic activity (WST-8 / CCK-8 assay); conditions: 1 µM; HEK293T, 24 h; WST-8; normalized to 0.1% DMSO; single replicates
TRIM24 = target: T7, TRIM24 (Homo sapiens, UniProt O15164); assay: Liability panel screening by DSF: TRIM24; format: binding; conditions: DSF, 20 µM, n=2; read-out: Mean ΔTM TRIM24
T7 construct: This panel comprised ten highly ligandable kinases and bromodomains; made in house
T7 sequence (O15164 899-1004 limits assumed): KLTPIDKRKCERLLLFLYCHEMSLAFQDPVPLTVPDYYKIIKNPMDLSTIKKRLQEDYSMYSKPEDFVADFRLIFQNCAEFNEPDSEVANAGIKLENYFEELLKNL
Method in brief: as §1

[4] = tested on: NF-κB activity in HEK293 NF-κB reporter cells; assay: NF-kB activity assay (GFP reporter, ionomycin/PMA); format: cell-based; conditions: n=3
Method in brief: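 Reporter readout: GFP-expressing cells normalized to confluence, imaged every 90 min across 24 h after ionomycin (100 ng/mL)/PMA (10 ng/mL) stimulation of HEK293 cells pre-treated 4 h with compound (0.1% DMSO); triplicate independent experiments.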

HEK293T cells [5] = assay: Cytotoxicity: growth-rate (change in confluence over 24 h); conditions: 1 µM, normalized to 0.1% DMSO control, single replicates (n=1...)
MAPK1 = target: T8, MAPK1 (Homo sapiens, UniProt P28482); assay: Liability panel screening by DSF: MAPK1; format: binding; conditions: DSF, 20 µM, n=2; read-out: Mean ΔTM MAPK1
T8 construct: made in house
T8 sequence (P28482 whole entry, species assumed): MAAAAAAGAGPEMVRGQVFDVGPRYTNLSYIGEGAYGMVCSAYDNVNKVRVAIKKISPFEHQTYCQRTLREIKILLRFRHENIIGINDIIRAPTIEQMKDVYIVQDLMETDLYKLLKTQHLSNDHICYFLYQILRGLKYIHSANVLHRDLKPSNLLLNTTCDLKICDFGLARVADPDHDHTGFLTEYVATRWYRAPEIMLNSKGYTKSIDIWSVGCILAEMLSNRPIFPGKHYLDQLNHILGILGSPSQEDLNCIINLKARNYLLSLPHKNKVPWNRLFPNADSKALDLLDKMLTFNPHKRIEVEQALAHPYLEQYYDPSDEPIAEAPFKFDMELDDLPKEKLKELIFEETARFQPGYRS
Method in brief: as §1

COc1cc(/C=C(\C#N)C(=O)Nc2nnc(C(F)(F)F)s2)ccc1OCc1ccc(C(F)(F)F)cc1C(F)(F)F [XCT790]
ΔTm at 20 µM (AURKA): -0.27 °C
ATF6 activity (tunicamycin-induced endoplasmic reticulum stress) ([1]; Hela ATF6 reporter cells, tunicamycin 100 ng/mL, 18 h, compounds at recommended concentrations, n = 5): lacked this effect
activity at 1 µM ([1]; Homo sapiens, HeLa, 1 µM, single replicates n=1 to n=5, read-out: ER stress [rel. ATF6 activity]): 100%
ΔTm at 20 µM (CDK2): 0.38 °C
ΔTm at 20 µM (BRD4): -2.31 °C
ΔTm at 20 µM (ABL1): 0.47 °C
ΔTm at 20 µM (CSNK1D): 0.0531 °C
ΔTm at 20 µM (FGFR3): 0.83 °C
Apoptosis induction [AI] (HEK293T cells [2]): 0.85 (2×) and 0.75 and 0.81 and 1.26 and 1.13
Metabolic activity [MA] (HEK293T cells [3]): 1.06 and 0.99 and 0.98 and 1.09 and 1.00 and 1.02 and 1.05 and 1.01
ΔTm at 20 µM (TRIM24): 0.29 °C
Mean NFκB response ([4]; 1 µM, 1,5 h): 3626.75 GFP+-cells/confluence ∙ 1000
Mean NFκB response ([4]; 1 µM, 4,5 h): 4074.08 GFP+-cells/confluence ∙ 1000
Mean NFκB response ([4]; 1 µM, 7,5 h): 7428.22 GFP+-cells/confluence ∙ 1000
Mean NFκB response ([4]; 1 µM, 10,5 h): 16505.45 GFP+-cells/confluence ∙ 1000
Mean NFκB response ([4]; 1 µM, 13,5 h): 23920.00 GFP+-cells/confluence ∙ 1000
Mean NFκB response ([4]; 1 µM, 16,6 h): 29753.33 GFP+-cells/confluence ∙ 1000
Mean NFκB response ([4]; 1 µM, 19,5 h): 33970.00 GFP+-cells/confluence ∙ 1000
Mean NFκB response ([4]; 1 µM, 22,5 h): 37876.67 GFP+-cells/confluence ∙ 1000
Mean NFκB response ([4]; 1 µM, 3 h): 3669.25 GFP+-cells/confluence ∙ 1000
Mean NFκB response ([4]; 1 µM, 6 h): 4944.18 GFP+-cells/confluence ∙ 1000
Mean NFκB response ([4]; 1 µM, 9 h): 11887.81 GFP+-cells/confluence ∙ 1000
Mean NFκB response ([4]; 1 µM, 12 h): 20416.67 GFP+-cells/confluence ∙ 1000
Mean NFκB response ([4]; 1 µM, 15 h): 27150.00 GFP+-cells/confluence ∙ 1000
Mean NFκB response ([4]; 1 µM, 18 h): 32423.33 GFP+-cells/confluence ∙ 1000
Mean NFκB response ([4]; 1 µM, 21 h): 35883.33 GFP+-cells/confluence ∙ 1000
Mean NFκB response ([4]; 1 µM, 24 h): 39596.67 GFP+-cells/confluence ∙ 1000
Growth rate [GR] (HEK293T cells [5]): 0.75 and 0.63 and 1.18 and 1.17 and 1.04 (2×) and 0.70 and 0.89 and 0.87 and 0.19
ΔTm at 20 µM (MAPK1): 0.28 °C
